The target in assay [1] is T1, Porcine ventricle myofibrils (ventricular myosin ATPase) (Sus scrofa, UniProt P79293).
T1 construct: Myofibrils from porcine cardiac muscle was isolated from the left ventricle of Yucatan minipigs; tissue Exemplar Genetics; host or cells: left ventricle of Yucatan minipigs, myofibrils prepared in house
Description: Myofibril ATPase assay, porcine ventricle myofibrils. As to conditions: porcine ventricle myofibrils. The class given is biochemical, porcine (Yucatan minipigs). The protocol: (§1) Example 1. Myofibril ATPase Assay
(§2) Myofibril ATPase assays are known in the art to be useful in evaluating small molecules for the treatment of HCM and other cardiac indications. Myosin ATPase activity is assessed by using a coupled reaction system, in which ADP generated by the myosin ATPase function is coupled to the disappearance of NADH through the pyruvate kinase/lactate dehydrogenase (PK-LDH) system. ATPase activity produces ADP, which is used as a substrate for PK to produce pyruvate and regenerate ATP. The pyruvate is then used as a substrate by LDH to oxidize NADH to NAD+. The rate of the reaction is monitored through the time-dependent disappearance of NADH using absorbance at 340 nm, which, when the couple system is in stoichiometric excess, is directly correlated to the ATPase activity of the myosin. Inhibition of ATPase activity by the assayed compounds is indicated by a reduced rate of NADH loss, relative to vehicle-treated controls, over the experimental time window. Activation of ATPase activity by the assayed compounds is indicated by an increased rate of NADH loss, relative to vehicle-treated controls, over the experimental time window. Rabbit Psoas, Porcine atria, and Porcine ventricle are the primary sources of myofibril material.
(§3) Materials: The following stock solutions and reagents were used in the Myofibril ATPase Assay:
(§4) Stock Solutions of pCa buffer. Combine PIPES, CaCl2, and EGTA solutions with water. Adjust pH to 7.0 and bring final volume to 100 mL.
(§5) Buffer A & Buffer B. Prepare buffers A and B according to the table below.
(§6) Myofibril ATPase Assay Procedure: BSA, ATP, NADH, PEP, and DTT solutions were thawed at room temperature, then transferred to ice. Pellet-frozen myofibrils were transferred with approximately twice the required volume into a sufficiently large tube and capped. Myofibrils were thawed by rolling in a water bath for approximately 15 min at room temperature and cooled on ice. Buffers A and B were prepared by adjusting volumes as necessary for required number of wells and stored on ice. 0.5 μL of the compounds to be assayed were added into wells. 25 μL of Buffer A was dispensed into the wells, followed by 25 μL of Buffer B. The wells were measured for absorbance at 340 nm, using a kinetic protocol in which the wells are read every 1.5-2 min for 75 min. Assay data analysis was performed using a python script that filtered the raw data to retain those points falling between a starting and ending time and between a maximum and minimum absorbance, then used the filtered time-domain 340 nm absorbance data in each well to calculate a slope via linear regression analysis in units of mAU/min. Compound slopes were normalized between 100% and 0% activity, where 100% represented the slope of wells containing only compound vehicle, and fit to a 4-parameter logistic model. In addition to the fit parameters, the EC25% values were calculated, relative to the 100% normalized value. Additionally, the Y125 values were calculated for compounds that increased myosin ATP-ase activity. Fit parameters, calculated effective concentrations, filtered raw data, and calculated slopes were exported, in addition to compound-specific graphs of normalized ATPase activity versus concentration in μM. Each value reported in Table 5, Table 6, and Table 7 is either a Y75 value or a Y125 value. Values without a double cross sign, ‡, are Y75 values, which reflect the concentration required to reduce myosin ATP-ase activity by 25% (e.g., Y-axis activity value is 75% of initial value), relative to myosin ATP-ase activity in the absence of exogenous compound.
Cardiac Myofibril Isolation:
Myofibrils from porcine cardiac muscle was isolated from the left ventricle of Yucatan minipigs. Myofibrils were prepared using a method based upon those described in Herrmann et al. (1993) and summarized here. […]

The subject of assay [2] is Rabbit Psoas myofibrils (skeletal myosin ATPase). Description: Myofibril ATPase assay, rabbit psoas (skeletal) myofibrils. The class given is biochemical. As to conditions: rabbit psoas myofibrils. The protocol:
as §1, §2, §3, §4, §5, §6
Skeletal Myofibril Isolation:
(§7) Myofibrils from various animals and tissue types were acquired from a variety of sources: rabbit psoas muscle was purchased from Pel-Freez Biologicals (Rogers, AR) and porcine cardiac muscle was purchased from Exemplar Genetics. All myofibrils were prepared using a method based upon those described in Herrmann et al. (1993) and summarized here. […]

Assay [3] deals with Porcine atria myofibrils (atrial myosin ATPase). Description: Myofibril ATPase assay, porcine atria myofibrils. As to conditions: porcine atria myofibrils. The assay is classed as biochemical. The protocol:
as §1, §2, §3, §4, §5, §6, §7

[4] abbreviates: Y75 value (75% activity relative to no compound).

T1 sequence (P79293 whole entry): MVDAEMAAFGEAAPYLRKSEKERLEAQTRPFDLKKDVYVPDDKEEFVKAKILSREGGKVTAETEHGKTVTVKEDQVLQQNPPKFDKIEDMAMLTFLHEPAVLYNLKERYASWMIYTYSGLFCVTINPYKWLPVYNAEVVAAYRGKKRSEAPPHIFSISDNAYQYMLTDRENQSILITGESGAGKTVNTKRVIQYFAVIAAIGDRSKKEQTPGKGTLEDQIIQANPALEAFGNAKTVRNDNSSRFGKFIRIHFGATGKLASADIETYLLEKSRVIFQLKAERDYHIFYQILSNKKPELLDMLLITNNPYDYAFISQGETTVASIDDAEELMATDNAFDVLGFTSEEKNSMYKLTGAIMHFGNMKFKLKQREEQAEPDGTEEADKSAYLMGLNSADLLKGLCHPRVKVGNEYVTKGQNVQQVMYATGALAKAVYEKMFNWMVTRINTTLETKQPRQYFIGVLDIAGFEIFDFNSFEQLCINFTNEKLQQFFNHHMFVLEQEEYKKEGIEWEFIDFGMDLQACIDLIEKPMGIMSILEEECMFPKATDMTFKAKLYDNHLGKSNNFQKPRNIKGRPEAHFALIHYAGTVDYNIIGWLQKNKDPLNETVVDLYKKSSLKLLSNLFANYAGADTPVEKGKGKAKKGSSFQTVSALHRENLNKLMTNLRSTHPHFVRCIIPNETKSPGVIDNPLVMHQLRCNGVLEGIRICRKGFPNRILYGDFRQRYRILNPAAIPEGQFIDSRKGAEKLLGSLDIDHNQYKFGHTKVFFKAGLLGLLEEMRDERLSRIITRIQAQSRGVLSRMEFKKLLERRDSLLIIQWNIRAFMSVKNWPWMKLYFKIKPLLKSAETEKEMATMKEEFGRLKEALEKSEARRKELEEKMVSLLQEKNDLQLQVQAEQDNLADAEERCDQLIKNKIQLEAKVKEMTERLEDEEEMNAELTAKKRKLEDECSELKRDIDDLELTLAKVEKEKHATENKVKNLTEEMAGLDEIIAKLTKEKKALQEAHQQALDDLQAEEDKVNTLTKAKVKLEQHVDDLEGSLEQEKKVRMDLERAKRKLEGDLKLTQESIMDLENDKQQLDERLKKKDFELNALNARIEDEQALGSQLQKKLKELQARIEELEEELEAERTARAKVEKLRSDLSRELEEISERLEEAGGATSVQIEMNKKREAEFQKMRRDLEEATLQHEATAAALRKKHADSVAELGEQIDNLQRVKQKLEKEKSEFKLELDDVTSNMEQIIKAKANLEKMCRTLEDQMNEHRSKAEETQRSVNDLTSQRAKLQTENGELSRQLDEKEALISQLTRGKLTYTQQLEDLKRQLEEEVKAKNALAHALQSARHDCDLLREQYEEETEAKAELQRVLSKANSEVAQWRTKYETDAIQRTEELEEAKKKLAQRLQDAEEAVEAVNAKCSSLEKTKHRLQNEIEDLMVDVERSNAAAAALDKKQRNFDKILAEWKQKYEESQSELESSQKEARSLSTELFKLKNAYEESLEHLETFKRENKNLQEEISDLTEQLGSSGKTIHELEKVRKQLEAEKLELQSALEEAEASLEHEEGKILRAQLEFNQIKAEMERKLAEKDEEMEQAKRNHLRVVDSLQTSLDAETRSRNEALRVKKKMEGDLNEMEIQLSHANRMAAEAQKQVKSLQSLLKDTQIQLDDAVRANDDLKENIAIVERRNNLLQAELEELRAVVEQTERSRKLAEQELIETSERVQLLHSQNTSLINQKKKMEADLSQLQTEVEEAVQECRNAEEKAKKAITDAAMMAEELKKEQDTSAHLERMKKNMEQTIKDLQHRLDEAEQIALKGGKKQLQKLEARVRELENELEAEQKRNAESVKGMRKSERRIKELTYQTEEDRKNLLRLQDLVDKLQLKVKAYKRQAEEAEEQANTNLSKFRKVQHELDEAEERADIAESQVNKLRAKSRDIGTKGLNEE

As to `Cc1nccc2[nH]c(=O)c(CC(=O)N[C@H](C)c3ccccn3)c(C)c12` (single isomer, unassigned) [compound 324], in assay [1] (Y75 value), the “Ventricular EC25” value was determined as 100000 nM. Also, the “Skeletal EC25” value in assay [2] (Y75 value) came out at 100000 nM. Further, the “Atrial EC25” value in assay [3] (setting [4]) turned out to be 100000 nM.
With `Cc1nccc2[nH]c(=O)c(CC(=O)N[C@@H](CO)c3ncc(C#N)cc3F)c(C)c12` (single isomer, unassigned) [compound 248], the “Ventricular EC25” value in assay [1] (Y75 value) worked out at 3010 nM. The “Skeletal EC25” value in assay [2] (Y75 value) turned out to be 170 nM. Besides, in assay [3] (setting [4]), the “Atrial EC25” value came out at 860 nM.
Regarding `Cc1ccncc1[C@@H](C)NC(=O)Cc1c(C)c2c(C)c(F)ccc2[nH]c1=O` [compound 1046], the “Ventricular EC25” value in assay [1] (Y75 value (no ‡ mark)) worked out at 140 nM. In assay [2] (Y75 value (no ‡ mark)), the “Skeletal EC25” value worked out at 40 nM. Further, the “Atrial EC25” value in assay [3] (Y75 value (no ‡ mark)) stood at 60 nM.
Consider `C[C@@H](NC(=O)Cc1c(C2CC2)c2cc(F)ccc2[nH]c1=O)c1ccc(C#N)cc1F` [compound 73], for which the “Ventricular EC25” value in assay [1] (Y75 value (no ‡ mark)) was determined as 100000 nM. Also, the “Skeletal EC25” value in assay [2] (Y75 value (no ‡ mark)) was determined as 20 nM. Besides, in assay [3] (Y75 value (no ‡ mark)), the “Atrial EC25” value amounted to 100000 nM.
As to `C[C@@H](NC(=O)Cc1cc2c(F)c(F)ccc2[nH]c1=O)c1cnc(C#N)cn1` (single isomer, unassigned) [compound 11], the “Ventricular EC25” value in assay [1] (Y75 value (no ‡ mark)) came out at 150 nM. Further, in assay [2] (Y75 value (no ‡ mark)), the “Skeletal EC25” value was 70 nM. Also, the “Atrial EC25” value in assay [3] (Y75 value (no ‡ mark)) turned out to be 50 nM.
Take `Cc1cc([C@@H](C)NC(=O)Cc2c(O)c3c(C)c(F)ccc3[nH]c2=O)ncc1F` [compound 1116]: the “Ventricular EC25” value in assay [1] (Y75 value (no ‡ mark)) came to 100000 nM. In addition, the “Skeletal EC25” value in assay [2] (Y75 value (no ‡ mark)) came out at 100000 nM. Further, the “Atrial EC25” value in assay [3] (Y75 value (no ‡ mark)) amounted to 100000 nM.
`Cc1cc([C@H](C)NC(=O)Cc2c(O)c3c(C)c(F)ccc3[nH]c2=O)ncc1F` [compound 1117]: in assay [1] (Y75 value (no ‡ mark)), the “Ventricular EC25” value came to 46610 nM. For the same molecule, in assay [2] (Y75 value (no ‡ mark)), the “Skeletal EC25” value stood at 100000 nM. In addition, in assay [3] (Y75 value (no ‡ mark)), the “Atrial EC25” value was 100000 nM.
On to `Cc1nccc2[nH]c(=O)c(CC(=O)N[C@@H](CO)c3ccc(F)cc3F)c(C)c12` (single isomer, unassigned) [compound 396], for which the “Ventricular EC25” value in assay [1] (Y75 value) was 3320 nM. In assay [2] (Y75 value), the “Skeletal EC25” value was 550 nM. The “Atrial EC25” value in assay [3] (setting [4]) worked out at 1180 nM.
With `CC(C(=O)N[C@@H](C)c1ccc(F)cc1F)c1c(C(F)(F)F)c2cc(F)ccc2[nH]c1=O` (stereo partly drawn) [compound 113], in assay [1] (Y75 value (no ‡ mark)), the “Ventricular EC25” value stood at 1610 nM. The “Skeletal EC25” value in assay [2] (Y75 value (no ‡ mark)) was found to be 40 nM. Moreover, in assay [3] (Y75 value (no ‡ mark)), the “Atrial EC25” value worked out at 100 nM.
With `Cc1nccc2[nH]c(=O)c(C(F)(F)C(=O)N[C@H](C)c3ccc(C#N)cc3F)c(C)c12` (single isomer, unassigned) [compound 3511], in assay [1] (Y75 value), the “Ventricular EC25” value was determined as 2650 nM. For the same molecule, the “Skeletal EC25” value in assay [2] (Y75 value) was found to be 260 nM. In assay [3] (setting [4]), the “Atrial EC25” value was found to be 560 nM.
Take `Cc1c(CC(=O)N[C@@H](C)c2ccc(F)cc2F)c(=O)[nH]c2ccnc(N)c12` [compound 352]: in assay [1] (Y75 value), the “Ventricular EC25” value stood at 31620 nM. For the same molecule, in assay [2] (Y75 value), the “Skeletal EC25” value stood at 180 nM. In addition, the “Atrial EC25” value in assay [3] (setting [4]) came to 2640 nM.
With `Cc1c(C(F)(F)C(=O)N[C@H](C)c2ncc(C#N)cc2F)c(=O)[nH]c2cccc(C#N)c12` (single isomer, unassigned) [compound 2501], the “Ventricular EC25” value in assay [1] (Y75 value (no ‡ mark)) turned out to be 450 nM. Further, in assay [2] (Y75 value (no ‡ mark)), the “Skeletal EC25” value is 150 nM. For the same molecule, the “Atrial EC25” value in assay [3] (Y75 value (no ‡ mark)) worked out at 170 nM.
For `Cc1c(C2(C(=O)N[C@H]3CCc4cc(C#N)cnc43)CC2)c(=O)[nH]c2ccc(F)cc12` (single isomer, unassigned) [compound 2504], the “Ventricular EC25” value in assay [1] (Y75 value (no ‡ mark)) was found to be 100000 nM. For the same molecule, the “Skeletal EC25” value in assay [2] (Y75 value (no ‡ mark)) came to 100000 nM. The “Atrial EC25” value in assay [3] (Y75 value (no ‡ mark)) turned out to be 100000 nM.
